One assay concerns Venturia inaequalis. The assay can be described thus: Example A apple scab. The settings on record: read-out: disease control rating, Ex. A. It counts as in vivo. The method, boiled down:
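Test compounds were dissolved in acetone (6% of final volume) and suspended at 100 or 20 ppm in purified water containing 250 ppm of the surfactant TREM 014 (polyhydric alcohol esters). Apple seedlings were sprayed with this suspension to the point of run-off.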

The subject of assay [1] is Aspergillus fumigatus ATCC 28214. Description: In vitro antifungal MIC, microtiter broth dilution. To be noted: Aspergillus fumigatus, ATCC28214, 24 h, read-out: MIC values, A. fumigatus, 30°, 24 hours. A general note: Dilution methods test growth across graded concentrations, often in twofold steps.
Assay [2] deals with Cercosporidium personatum. Description: Example B Peanut Late Leafspot. The class given is in vivo. The settings on record: Nothopassalora personata, read-out: disease control rating, Ex. B. The essentials:
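Compounds were dissolved in acetone (6% of final volume) and suspended at 100 or 20 ppm in purified water containing 250 ppm TREM 014 surfactant (polyhydric alcohol esters). The suspension was sprayed to run-off on peanut seedlings.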

Assay [3] deals with Candida albicans ATCC 11651. Description: In vitro antifungal MIC, microtiter broth dilution. The settings on record: Candida albicans, ATCC11651, 24 h, read-out: MIC values, C. albicans, 30°, 24 hours.
The test system of another assay is Botrytis cinerea. The assay can be described thus: Example C bean grey mold. The class given is in vivo. To be noted: Botrytis cinerea, 24 h, read-out: disease control rating, Ex. C. The method, boiled down:
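Test compounds were taken up in acetone (6% of final volume) and suspended at 100 or 20 ppm in purified water containing 250 ppm TREM 014 surfactant (polyhydric alcohol esters). Broad bean seedlings were sprayed with this suspension until run-off.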

The subject of assay [4] is Rhizoctonia solani. Description: Example F rice sheath blight. The class given is in vivo. To be noted: Rhizoctonia solani, 144 h, read-out: disease control rating, Ex. F. The essentials: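 Compounds, dissolved in acetone at 6% of final volume, were suspended at 100 or 20 ppm in purified water with 250 ppm polyhydric alcohol ester surfactant (TREM 014). Rice seedlings were sprayed with this suspension to run-off.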

The next assay concerns Plasmorpara viticola. The assay can be described thus: Example I grape downy mildew. It counts as in vivo. To be noted: read-out: disease control rating, Ex. I. The method, boiled down:
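Applied as a foliar spray to run-off on grape seedlings, the compounds were formulated at 100 or 20 ppm in water containing 250 ppm TREM 014, with acetone making up 6% of the volume.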

The subject of the next assay is Sclerotium rolfsii. Description: Example M southern blight. It counts as in vivo. The settings on record: Agroathelia rolfsii, 336 h; 5 kg/ha; read-out: disease control rating, Ex. M. The method, then:
[…] Seeds and soil were then inoculated with a mixture of sand, cereal and mycelium of the fungus Sclerotium rolfsii, causal agent of sourthern blight, and incubated in a growth chamber at 30° C. for 14 days. Disease ratings were then made.

In assay [5] the test system is Erysiphe graminis f. sp. tritici. The assay can be described thus: Example D wheat powdery mildew. It counts as in vivo. The settings on record: Blumeria graminis, 144 h, read-out: disease control rating, Ex. D. The essentials: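 Compounds were dissolved in acetone (6% of final volume), then suspended at 100 or 20 ppm in purified water containing 250 ppm TREM 014 surfactant. Wheat seedlings were sprayed with this suspension to run-off.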

The next assay concerns Pythium aphanadermatum. The assay can be described thus: Example J cucumber damping off. The class given is in vivo. More on the design: key to phytotoxicity entry, Ex. J: P: disease control was not measured due to phytoxicity. The settings on record: 5 kg/ha; for pest or weed control at 5000 g/ha: Pythium, 336 h, read-out: disease control rating, Ex. J. On the procedure:
[…] Seeds and soil were then inoculated with a mixture of sand, cereal and mycelium of the fungus Pythium aphanadermatum, causal agent of cucumber damping off, and incubated in a growth chamber at 30° C. for 14 days. Disease ratings were then made.

In the next assay the test system is Phytophthora infestans. The assay can be described thus: whole plant or invertebrate. It counts as in vivo. The settings on record: Phytophthora infestans, in Solanum lycopersicum, read-out: disease control rating, Ex. H, 100 PPM.
In a further assay the test system is Pyricularia oryzae. The assay can be described thus: whole plant or invertebrate. It counts as in vivo. The settings on record: Pyricularia oryzae, 120 h; for pest or weed control at 100 ppm: read-out: disease control rating, Ex. E, 100 PPM; for pest or weed control at 20 ppm: read-out: disease control rating, Ex. E, 20 PPM.
For assay [6], the system named is Candida albicans ATCC 11651. Description: In vivo systemic Candida infection in mice, primary assay. More on the design: species or system Candida albicans; CF-1 female mice. The settings on record: Candida albicans, 150 mg/kg per day, read-out: % Survival. The essentials:
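CF-1 female mice (20 g, 10 per group) were infected IV with 0.2 ml of 1×10^7/ml C. albicans ATCC 11651, then given test compound subcutaneously at 50 or 150 mg/kg/day at 1 and 6 h post-infection and once daily for three more days. Survival was followed for 21 days against infected untreated mice; ≥70% protection at 14 days was scored active.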

In assay [7] the test system is Rhizoctonia solani. Description: Example K cotton blight. It counts as in vivo. The settings on record: 336 h, 5 kg/ha, read-out: disease control rating, Ex. K. On the procedure: […] Seeds and soil were then inoculated with a mixture of sand, cereal and mycelium of the fungus Rhizoctonia solani, causal agent of cotton blight, and incubated in a growth chamber at 30° C. for 14 days. Disease ratings were then made.

The next assay deals with Puccinia recondita. The assay can be described thus: Example G wheat leaf rust. It counts as in vivo. To be noted: read-out: disease control rating, Ex. G.

In brackets after ≈: the same amount, converted by molar mass. Where two headings read alike, the source gives them in different places.

The term MIC denotes the lowest concentration that inhibits growth of the organism.

For the molecule `C=C(c1ccc(Cl)cc1Cl)C(O)(Cn1cncn1)c1ccc(Cl)cc1Cl` (stereo not drawn) [Example 100], the pest or weed control at 100 ppm with Venturia inaequalis was 100%; in [2], 100%; in the assay with Botrytis cinerea it was 96%; in the assay with Rhizoctonia solani [4] it was 80%; with Plasmorpara viticola it was 83%; in assay [5], 83%. The pest or weed control at 100 ppm came out at 0% in the assay on Phytophthora infestans, 95% with Pyricularia oryzae and 100% in the assay on Puccinia recondita. In addition, the figures for the MIC in assay [1] and in assay [3] were 3.2 µg/mL (≈ 7.46 µM) and 0.03 µg/mL (≈ 0.0699 µM), respectively. Further, the pest or weed control at 5000 g/ha in the assay with Sclerotium rolfsii and in the assay with Rhizoctonia solani [7] was 0% in each case. The “phytotoxicity entry, Ex. J” value in the assay with Pythium aphanadermatum is reported as “P”. Further, the responders at 150 mg/kg in assay [6] (ATCC11651, 168 h, day 7) came to 100%; in assay [6] (ATCC11651, 336 h, day 14) it was 50%; in [6] (ATCC11651, 504 h, day 21), 30%.
As to `C=C(c1cccc(F)c1)C(O)(Cn1cncn1)c1ccc(Cl)cc1` (stereo not drawn) [Example 17], the pest or weed control at 20 ppm was 80% with Venturia inaequalis; 100% in assay [2]; 57% in the assay on Botrytis cinerea; 0% in the assay on Rhizoctonia solani [4]; 95% in assay [5]; 0% in the assay with Pyricularia oryzae. In the assay on Puccinia recondita, the pest or weed control at 20 ppm was found to be 100%. In addition, the MIC in assay [1] turned out to be 12.5 µg/mL (≈ 36.4 µM); in assay [3], 0.03 µg/mL (≈ 0.0873 µM). Moreover, the pest or weed control at 100 ppm was determined as 89% in the assay on Botrytis cinerea; 81% in the assay with Rhizoctonia solani [4]; 42% in the assay on Plasmorpara viticola; 0% with Phytophthora infestans; 0% in the assay with Pyricularia oryzae. The pest or weed control at 5000 g/ha with Sclerotium rolfsii, in the assay with Pythium aphanadermatum and in the assay with Rhizoctonia solani [7] was 0% in each case. Besides, the responders at 150 mg/kg was 100% in assay [6] (ATCC11651, 168 h, day 7); 90% in assay [6] (ATCC11651, 336 h, day 14); 70% in assay [6] (ATCC11651, 504 h, day 21).
As to `C=C(c1ccccc1Cl)C(O)(Cn1cncn1)c1ccccc1Cl` (stereo not drawn) [Example 622], the pest or weed control at 100 ppm was found to be 100% with Venturia inaequalis; 100% in assay [2]; 84% in the assay on Botrytis cinerea; 100% with Rhizoctonia solani [4]; 26% with Plasmorpara viticola; 99% in assay [5]. For the same molecule, the figures for the pest or weed control at 100 ppm in the assay on Phytophthora infestans, in the assay with Pyricularia oryzae and in the assay with Puccinia recondita were 0%, 0% and 100%, respectively. Further, the MIC in [1] is 0.1 µg/mL (≈ 0.278 µM); in assay [3], 0.03 µg/mL (≈ 0.0833 µM). Moreover, the pest or weed control at 5000 g/ha with Sclerotium rolfsii, in the assay with Pythium aphanadermatum and in the assay with Rhizoctonia solani [7] was 0% each time. For the same molecule, the responders at 150 mg/kg in [6] (ATCC11651, 168 h, day 7) turned out to be 100%; in assay [6] (ATCC11651, 336 h, day 14), 100%; in assay [6] (ATCC11651, 504 h, day 21), 100%.
For `C=C(c1ccccc1Cl)C(O)(Cn1cncn1)c1ccccc1F` (stereo not drawn) [Example 620], the pest or weed control at 100 ppm in the assay on Venturia inaequalis worked out at 100%; in assay [2] it was 100%; in the assay on Botrytis cinerea, 96%; in the assay on Rhizoctonia solani [4] it was 100%; in the assay with Plasmorpara viticola, 0%; in assay [5], 98%. The pest or weed control at 100 ppm turned out to be 0% in the assay with Phytophthora infestans, 51% with Pyricularia oryzae and 100% in the assay with Puccinia recondita. The MIC in assay [1] came out at 0.05 µg/mL (≈ 0.145 µM); in assay [3], 0.03 µg/mL (≈ 0.0873 µM). The pest or weed control at 5000 g/ha with Sclerotium rolfsii, in the assay with Pythium aphanadermatum and in the assay with Rhizoctonia solani [7] was 0% in each case. Also, the responders at 150 mg/kg in assay [6] (ATCC11651, 168 h, day 7) was determined as 100%; in assay [6] (ATCC11651, 336 h, day 14), 100%; in assay [6] (ATCC11651, 504 h, day 21), 90%.
Turning to `C=C(c1ccc(Cl)cc1Cl)C(O)(Cn1cncn1)c1ccc(Cl)cc1` (stereo not drawn) [Example 101], the pest or weed control at 100 ppm with Venturia inaequalis worked out at 100%; in assay [2], 100%; with Botrytis cinerea it was 94%; with Rhizoctonia solani [4] it was 80%; in the assay with Plasmorpara viticola, 100%; in [5] it was 83%. Also, the pest or weed control at 100 ppm in the assay on Phytophthora infestans was found to be 0%; in the assay on Pyricularia oryzae, 0%; with Puccinia recondita, 100%. Further, the results for the MIC in assay [1] and in [3] were 12.5 µg/mL (≈ 31.7 µM) and 0.03 µg/mL (≈ 0.076 µM), respectively. Further, the pest or weed control at 5000 g/ha in the assay with Sclerotium rolfsii, with Pythium aphanadermatum and in the assay with Rhizoctonia solani [7] was 0% in each case. Also, the responders at 150 mg/kg in [6] (ATCC11651, 168 h, day 7) was found to be 100%; in [6] (ATCC11651, 336 h, day 14), 90%; in assay [6] (ATCC11651, 504 h, day 21), 60%.
Regarding `C=C(c1cccc(F)c1)C(O)(Cn1cncn1)c1ccc(Cl)cc1Cl` (stereo not drawn) [Example 16, 2-(2,4-Dichlorophenyl)-3-(3-fluorophenyl)-1-(1H-1,2,4-triazol-1-yl)-3-buten-2-ol], the pest or weed control at 20 ppm was found to be 74% in the assay with Venturia inaequalis; 99% in assay [2]; 27% with Botrytis cinerea; 0% in the assay on Rhizoctonia solani [4]; 67% in assay [5]; 0% in the assay on Pyricularia oryzae. Moreover, the pest or weed control at 20 ppm with Puccinia recondita amounted to 100%. For the same molecule, the MIC is 6.3 µg/mL (≈ 16.7 µM) in [1] and 0.03 µg/mL (≈ 0.0793 µM) in [3]. Moreover, the pest or weed control at 100 ppm in the assay on Botrytis cinerea amounted to 46%; in the assay with Rhizoctonia solani [4] it was 0%; in the assay on Plasmorpara viticola, 23%; in the assay with Phytophthora infestans, 0%; in the assay with Pyricularia oryzae, 0%. Moreover, the pest or weed control at 5000 g/ha in the assay on Sclerotium rolfsii, in the assay on Pythium aphanadermatum and in the assay with Rhizoctonia solani [7] was 0% throughout. Also, the responders at 150 mg/kg is 100% in assay [6] (ATCC11651, 168 h, day 7); 100% in assay [6] (ATCC11651, 336 h, day 14); 100% in assay [6] (ATCC11651, 504 h, day 21).
